Data as given in ChEMBL document CHEMBL3751833, “Discovery of potent aryl-substituted 3-[(3-methylpyridine-2-carbonyl) amino]-2,4-dimethyl-benzoic acid EP4 antagonists with improved pharmacokinetic profile” (Bioorg Med Chem Lett, 2016).
pIC50, pKi: −log10 of the molar value. ≈ marks a conversion by molar mass, not a printed value. Calls of active or inactive are those of the source. The rule behind the calls is not given here.

Experiments:
[1] = biological target: T1, Prostaglandin E2 receptor EP4 subtype (Homo sapiens, UniProt P35408); assay: Antagonist activity at human EP4 receptor expressed in HEK293 cells assessed as inhibition of PGE2-stimulated cAMP production after 1 hr by HTRF assay; format: functional, cell-based
T1 sequence (P35408 whole entry): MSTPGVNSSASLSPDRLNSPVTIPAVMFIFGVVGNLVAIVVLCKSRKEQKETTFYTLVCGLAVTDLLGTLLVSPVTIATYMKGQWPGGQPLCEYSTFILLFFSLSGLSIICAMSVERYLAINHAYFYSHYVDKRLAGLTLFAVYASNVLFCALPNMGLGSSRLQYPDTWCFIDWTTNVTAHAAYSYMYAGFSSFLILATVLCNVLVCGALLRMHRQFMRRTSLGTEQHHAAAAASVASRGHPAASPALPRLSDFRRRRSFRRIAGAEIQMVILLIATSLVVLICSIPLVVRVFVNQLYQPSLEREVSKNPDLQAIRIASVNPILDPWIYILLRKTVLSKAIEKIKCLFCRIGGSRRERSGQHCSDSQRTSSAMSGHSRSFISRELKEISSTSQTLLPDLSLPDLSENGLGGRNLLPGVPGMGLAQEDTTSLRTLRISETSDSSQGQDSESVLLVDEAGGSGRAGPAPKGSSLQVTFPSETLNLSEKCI

[2] = biological target: T1, Prostaglandin E2 receptor EP4 subtype; assay: Antagonist activity at EP4 receptor in LPS-stimulated human whole blood assessed as inhibition of PGE2-induced TNF-alpha release pretreated for 30 mins followed by addition of PGE2 measured after 20 to 24 hrs by immunoassay; format: tissue-based
[3] = Aqueous solubility of compound at pH 6 after 20 hrs by HPLC analysis; format: physicochemical
[4] = Clearance in rat at 1 mg/kg, iv; format: ADME, organism-based; conditions: in vivo
[5] = (§1) AUC in rat at 5 mg/kg, po; format: ADME, organism-based; conditions: in vivo
[6] = (§2) Oral bioavailability in rat at 5 mg/kg; format: ADME, organism-based; conditions: in vivo
Rattus norvegicus [7] = assay: Analgesic activity in […]-induced rat joint pain model assessed as inhibition of differential weight bearing at 5 mg/kg, po measured 30 mins post dose; format: functional, organism-based
[8] = biological target: L-type calcium channel, dihydropyridine binding site (Homo sapiens, UniProt O60840+Q01668+Q13698+Q13936); assay: Inhibition of L-type calcium channel dihydropyridine binding site (unknown origin) at 10 uM; format: protein assay
[9] = Volume of distribution at steady state in rat at 1 mg/kg, iv and 5 mg/kg, po; format: ADME, organism-based; conditions: in vivo, read-out: Vdss
[10] = Volume of distribution at steady state in dog at 1 mg/kg, iv and 5 mg/kg, po; format: ADME, organism-based, Canis lupus familiaris; conditions: in vivo, read-out: Vdss
Cytochrome P450 2C8 = Cytochrome P450 2C8 (Homo sapiens, UniProt P10632); assay: Inhibition of CYP2C8 (unknown origin); format: ADME
Chain of Cytochrome P450 2C8 (P10632 whole entry): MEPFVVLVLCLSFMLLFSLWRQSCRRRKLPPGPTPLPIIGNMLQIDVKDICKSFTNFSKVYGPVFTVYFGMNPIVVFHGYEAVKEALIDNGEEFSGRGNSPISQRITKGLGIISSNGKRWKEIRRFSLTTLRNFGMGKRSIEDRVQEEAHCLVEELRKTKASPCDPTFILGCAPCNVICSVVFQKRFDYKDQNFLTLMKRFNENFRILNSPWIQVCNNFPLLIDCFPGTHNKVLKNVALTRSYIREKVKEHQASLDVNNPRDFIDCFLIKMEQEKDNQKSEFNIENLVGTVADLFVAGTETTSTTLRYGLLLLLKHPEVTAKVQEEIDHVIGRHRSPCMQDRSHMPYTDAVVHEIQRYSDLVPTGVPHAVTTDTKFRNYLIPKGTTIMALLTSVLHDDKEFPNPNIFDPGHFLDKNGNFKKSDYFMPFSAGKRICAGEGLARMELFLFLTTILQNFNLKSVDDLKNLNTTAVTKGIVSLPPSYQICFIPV

Cytochrome P450 2D6 = Cytochrome P450 2D6 (Homo sapiens, UniProt P10635); assay: Inhibition of CYP2D6 (unknown origin); format: ADME
Cytochrome P450 3A4 = Cytochrome P450 3A4 (Homo sapiens, UniProt P08684); assay: Inhibition of CYP3A4 (unknown origin); format: ADME
Cytochrome P450 2C19 = Cytochrome P450 2C19 (Homo sapiens, UniProt P33261); assay: Inhibition of CYP2C19 (unknown origin); format: ADME
Cytochrome P450 2C9 = Cytochrome P450 2C9 (Homo sapiens, UniProt P11712); assay: Inhibition of CYP2C9 (unknown origin); format: ADME
[11] = biological target: Voltage-gated inwardly rectifying potassium channel KCNH2 (Homo sapiens, UniProt Q12809); assay: Displacement of [3H]astemizole from human ERG upto 100 uM
Chain of Voltage-gated inwardly rectifying potassium channel KCNH2 (Q12809 whole entry): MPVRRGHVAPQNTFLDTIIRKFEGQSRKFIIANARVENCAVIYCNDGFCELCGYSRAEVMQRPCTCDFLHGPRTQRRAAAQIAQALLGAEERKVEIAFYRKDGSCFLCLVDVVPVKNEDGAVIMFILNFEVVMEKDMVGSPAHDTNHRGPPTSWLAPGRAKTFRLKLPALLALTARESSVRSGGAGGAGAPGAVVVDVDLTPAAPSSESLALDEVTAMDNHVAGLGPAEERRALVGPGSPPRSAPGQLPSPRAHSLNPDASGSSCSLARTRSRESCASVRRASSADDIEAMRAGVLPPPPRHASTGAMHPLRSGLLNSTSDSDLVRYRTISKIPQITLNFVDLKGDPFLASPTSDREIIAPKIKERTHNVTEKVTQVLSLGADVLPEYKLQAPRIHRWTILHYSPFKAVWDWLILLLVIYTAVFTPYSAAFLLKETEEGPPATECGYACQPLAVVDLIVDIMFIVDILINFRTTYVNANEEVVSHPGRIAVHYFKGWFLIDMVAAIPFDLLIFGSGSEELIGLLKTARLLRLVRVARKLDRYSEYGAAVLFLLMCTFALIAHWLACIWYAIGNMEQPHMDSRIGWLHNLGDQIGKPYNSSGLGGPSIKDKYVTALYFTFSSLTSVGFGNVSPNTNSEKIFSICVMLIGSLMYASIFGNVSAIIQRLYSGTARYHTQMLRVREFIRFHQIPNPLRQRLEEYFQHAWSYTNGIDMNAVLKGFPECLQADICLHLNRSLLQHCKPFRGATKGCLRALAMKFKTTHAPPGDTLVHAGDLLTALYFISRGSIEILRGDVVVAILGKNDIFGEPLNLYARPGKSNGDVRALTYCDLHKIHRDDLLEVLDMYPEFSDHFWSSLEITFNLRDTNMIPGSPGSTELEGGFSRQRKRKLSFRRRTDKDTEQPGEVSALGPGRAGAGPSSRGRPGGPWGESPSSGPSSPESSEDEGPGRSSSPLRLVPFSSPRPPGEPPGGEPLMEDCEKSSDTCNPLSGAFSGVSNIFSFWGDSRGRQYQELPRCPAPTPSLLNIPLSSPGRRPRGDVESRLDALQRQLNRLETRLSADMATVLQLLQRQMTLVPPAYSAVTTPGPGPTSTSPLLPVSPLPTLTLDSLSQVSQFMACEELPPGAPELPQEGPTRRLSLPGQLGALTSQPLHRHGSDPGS

[12] = AUC in dog at 5 mg/kg, po; format: ADME, organism-based, Canis lupus familiaris; conditions: in vivo
[13] = Cmax in rat at 5 mg/kg, po; format: ADME, organism-based; set-up: dose 5 mg/kg, route oral; conditions: in vivo
[14] = Cmax in dog at 5 mg/kg, po; format: ADME, organism-based, Canis lupus familiaris; set-up: dose 5 mg/kg, route oral; conditions: in vivo
[15] = Half life in rat at 5 mg/kg, po; format: ADME, organism-based; conditions: in vivo
[16] = Half life in dog at 5 mg/kg, po; format: ADME, organism-based, Canis lupus familiaris; conditions: in vivo
[17] = Clearance in dog at 1 mg/kg, iv; format: ADME, organism-based, Canis lupus familiaris; conditions: in vivo
[18] = Oral bioavailability in dog at 5 mg/kg; format: ADME, organism-based, Canis lupus familiaris; conditions: in vivo
[19] = biological target: Prostaglandin E2 receptor EP1 subtype (Homo sapiens, UniProt P34995); assay: Binding affinity to human EP1 receptor
Chain of Prostaglandin E2 receptor EP1 subtype (P34995 whole entry): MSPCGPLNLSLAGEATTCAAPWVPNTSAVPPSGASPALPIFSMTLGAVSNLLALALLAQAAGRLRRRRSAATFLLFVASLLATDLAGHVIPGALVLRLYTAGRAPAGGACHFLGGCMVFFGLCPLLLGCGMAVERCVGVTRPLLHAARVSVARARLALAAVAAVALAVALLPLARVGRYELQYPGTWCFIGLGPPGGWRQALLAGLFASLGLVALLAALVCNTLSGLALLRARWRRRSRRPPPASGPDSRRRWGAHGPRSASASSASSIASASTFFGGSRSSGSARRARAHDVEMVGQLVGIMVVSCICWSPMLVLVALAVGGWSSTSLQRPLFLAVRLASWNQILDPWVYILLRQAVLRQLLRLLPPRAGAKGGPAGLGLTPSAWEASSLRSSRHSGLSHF

[20] = biological target: Prostaglandin E2 receptor EP2 subtype (Homo sapiens, UniProt P43116); assay: Binding affinity to human EP2 receptor
Chain of Prostaglandin E2 receptor EP2 subtype (P43116 whole entry): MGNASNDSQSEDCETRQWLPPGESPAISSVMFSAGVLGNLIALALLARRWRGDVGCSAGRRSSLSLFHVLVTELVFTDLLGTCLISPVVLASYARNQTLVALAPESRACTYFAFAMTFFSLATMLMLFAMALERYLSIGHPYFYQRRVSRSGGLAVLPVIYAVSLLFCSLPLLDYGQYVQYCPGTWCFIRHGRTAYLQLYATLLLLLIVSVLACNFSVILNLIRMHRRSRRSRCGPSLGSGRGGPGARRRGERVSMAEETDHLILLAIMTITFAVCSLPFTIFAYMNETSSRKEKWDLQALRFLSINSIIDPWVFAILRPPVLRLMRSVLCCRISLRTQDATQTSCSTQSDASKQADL

[21] = biological target: Prostaglandin E2 receptor EP3 subtype (Homo sapiens, UniProt P43115); assay: Binding affinity to human EP3 receptor
Chain of Prostaglandin E2 receptor EP3 subtype (P43115 whole entry): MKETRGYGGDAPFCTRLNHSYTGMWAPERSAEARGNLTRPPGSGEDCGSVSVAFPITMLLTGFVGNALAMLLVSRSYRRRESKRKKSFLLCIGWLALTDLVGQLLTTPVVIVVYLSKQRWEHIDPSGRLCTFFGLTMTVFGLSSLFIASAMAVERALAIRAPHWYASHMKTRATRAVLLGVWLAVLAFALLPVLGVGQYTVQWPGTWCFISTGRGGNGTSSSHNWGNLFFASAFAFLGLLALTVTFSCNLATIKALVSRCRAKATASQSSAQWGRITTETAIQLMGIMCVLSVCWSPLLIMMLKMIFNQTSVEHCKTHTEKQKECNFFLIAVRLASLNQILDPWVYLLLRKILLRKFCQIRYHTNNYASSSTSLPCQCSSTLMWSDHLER

Cytochrome P450 1A2 = Cytochrome P450 1A2 (Homo sapiens, UniProt P05177); assay: Inhibition of CYP1A2 (unknown origin); format: ADME
Cytochrome P450 2B6 = Cytochrome P450 2B6 (Homo sapiens, UniProt P20813); assay: Inhibition of CYP2B6 (unknown origin); format: ADME
Chain of Cytochrome P450 2B6 (P20813 whole entry): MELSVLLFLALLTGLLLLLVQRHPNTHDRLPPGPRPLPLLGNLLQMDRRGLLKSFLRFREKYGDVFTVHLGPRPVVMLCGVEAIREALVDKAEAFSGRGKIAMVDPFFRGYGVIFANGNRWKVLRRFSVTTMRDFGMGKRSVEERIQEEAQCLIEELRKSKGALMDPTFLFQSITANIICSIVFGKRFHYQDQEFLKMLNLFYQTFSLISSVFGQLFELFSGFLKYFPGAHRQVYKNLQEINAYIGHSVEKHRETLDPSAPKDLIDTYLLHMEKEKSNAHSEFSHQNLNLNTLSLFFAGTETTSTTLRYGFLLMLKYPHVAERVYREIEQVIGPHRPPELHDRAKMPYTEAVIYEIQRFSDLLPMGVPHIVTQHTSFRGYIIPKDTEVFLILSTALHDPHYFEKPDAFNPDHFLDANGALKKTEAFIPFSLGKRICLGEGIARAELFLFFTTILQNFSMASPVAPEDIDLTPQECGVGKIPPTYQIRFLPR

Rattus norvegicus [22] = assay: Analgesic activity in […]-induced po dosed rat joint pain model assessed as inhibition of differential weight bearing measured 30 mins post dose; format: functional, organism-based
Rattus norvegicus [23] = assay: Antiinflammatory activity in adjuvant-induced arthritis rat model assessed as inhibition of paw swelling at 10 and 30 mg/kg administered 15 days post adjuvant challenge; format: functional, organism-based
[24] = biological target: Adenosine receptor A3 (Homo sapiens) (UniProt P0DMS8); assay: Inhibition of human adenosine A3 receptor at 10 uM
Chain of Adenosine receptor A3 (Homo sapiens) (P0DMS8 whole entry): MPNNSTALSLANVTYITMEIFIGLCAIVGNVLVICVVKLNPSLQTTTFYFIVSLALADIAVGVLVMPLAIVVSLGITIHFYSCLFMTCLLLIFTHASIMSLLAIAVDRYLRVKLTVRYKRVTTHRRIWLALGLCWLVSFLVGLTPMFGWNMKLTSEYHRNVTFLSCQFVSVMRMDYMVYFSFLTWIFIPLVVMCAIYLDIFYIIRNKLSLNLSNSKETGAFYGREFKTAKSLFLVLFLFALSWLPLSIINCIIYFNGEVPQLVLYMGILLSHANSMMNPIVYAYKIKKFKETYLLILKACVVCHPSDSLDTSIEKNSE

[25] = biological target: Adrenergic receptor alpha-1 (Rattus norvegicus) (UniProt P15823+P23944+P43140); assay: Inhibition of rat alpha-1 adrenergic receptor at 10 uM
[26] = biological target: Adrenergic receptor alpha-2 (Rattus norvegicus) (UniProt P22086+P19328+P22909); assay: Inhibition of rat alpha-2 adrenergic receptor at 10 uM
[27] = biological target: Beta-1 adrenergic receptor (Homo sapiens) (UniProt P08588); assay: Inhibition of human beta-1 adrenergic receptor at 10 uM
[28] = biological target: Beta-2 adrenergic receptor (Homo sapiens) (UniProt P07550); assay: Inhibition of human beta-2 adrenergic receptor at 10 uM
[29] = biological target: D(1A) dopamine receptor (Homo sapiens) (UniProt P21728); assay: Inhibition of human dopamine D1 receptor at 10 uM
[30] = biological target: D(2) dopamine receptor (Homo sapiens) (UniProt P14416); assay: Inhibition of human dopamine D2s receptor at 10 uM
Chain of D(2) dopamine receptor (Homo sapiens) (P14416 whole entry): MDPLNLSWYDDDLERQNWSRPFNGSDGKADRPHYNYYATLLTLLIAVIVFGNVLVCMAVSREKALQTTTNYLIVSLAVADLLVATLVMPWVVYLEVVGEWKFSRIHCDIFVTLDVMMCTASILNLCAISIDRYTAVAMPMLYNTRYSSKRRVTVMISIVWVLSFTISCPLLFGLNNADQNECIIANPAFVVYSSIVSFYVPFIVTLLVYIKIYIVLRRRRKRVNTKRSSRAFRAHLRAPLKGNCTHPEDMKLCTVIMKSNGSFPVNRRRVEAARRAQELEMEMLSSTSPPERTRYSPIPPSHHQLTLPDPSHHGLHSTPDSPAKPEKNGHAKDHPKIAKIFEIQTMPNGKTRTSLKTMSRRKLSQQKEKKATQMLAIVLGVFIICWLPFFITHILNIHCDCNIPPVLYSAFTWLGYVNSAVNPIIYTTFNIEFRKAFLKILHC

[31] = biological target: Histamine H1 receptor (Homo sapiens) (UniProt P35367); assay: Inhibition of human histamine H1 receptor at 10 uM
[32] = biological target: Muscarinic acetylcholine receptor M2 (Homo sapiens) (UniProt P08172); assay: Inhibition of human muscarinic M2 receptor at 10 uM
[33] = biological target: Mu-type opioid receptor (Homo sapiens) (UniProt P35372); assay: Inhibition of human mu opoid receptor at 10 uM
Chain of Mu-type opioid receptor (Homo sapiens) (P35372 whole entry): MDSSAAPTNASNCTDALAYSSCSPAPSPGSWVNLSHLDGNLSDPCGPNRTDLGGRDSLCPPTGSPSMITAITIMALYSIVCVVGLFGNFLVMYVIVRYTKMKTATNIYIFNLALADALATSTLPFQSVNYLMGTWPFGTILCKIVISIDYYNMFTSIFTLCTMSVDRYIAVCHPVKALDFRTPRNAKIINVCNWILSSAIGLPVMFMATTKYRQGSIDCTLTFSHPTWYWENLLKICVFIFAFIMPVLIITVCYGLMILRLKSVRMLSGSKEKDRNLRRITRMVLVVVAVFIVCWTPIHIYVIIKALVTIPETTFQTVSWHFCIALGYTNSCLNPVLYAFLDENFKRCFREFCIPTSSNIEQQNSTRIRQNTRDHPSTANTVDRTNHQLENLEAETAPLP

[34] = biological target: L-type calcium channel, diltiazem binding site (Homo sapiens, UniProt O60840+Q01668+Q13698+Q13936); assay: Inhibition of L-type calcium channel diltiazem binding site (unknown origin) at 10 uM; format: protein assay
[35] = biological target: L-type calcium channel, verapamil binding site (Homo sapiens, UniProt O60840+Q01668+Q13698+Q13936); assay: Inhibition of L-type calcium channel verapamil binding site (unknown origin) at 10 uM; format: protein assay
Rattus norvegicus [36] = organism: Rattus norvegicus; assay: Inhibition of rat chloride channel at 10 uM
[37] = biological target: Sodium-dependent noradrenaline transporter (Homo sapiens) (UniProt P23975); assay: Inhibition of human Noradrenaline transporter at 10 uM
[38] = biological target: Acetylcholinesterase (Homo sapiens) (UniProt P22303); assay: Inhibition of human acetylcholinesterase at 10 uM
Rattus norvegicus [39] = assay: as §1; format: ADME, organism-based; conditions: in vivo
Rattus norvegicus [40] = assay: as §2; format: ADME, organism-based; conditions: in vivo
[41] = Oral bioavailability in rat; format: ADME, organism-based; conditions: in vivo
Rattus norvegicus [42] = assay: Antiinflammatory activity in adjuvant-induced arthritis rat model assessed as inhibition of paw swelling at 10 mg/kg administered 15 days post adjuvant challenge; format: functional, organism-based

Cc1ccc(C(=O)O)c(C)c1NC(=O)c1nc(-c2cccc(CO)c2)ccc1C(F)(F)F
pIC50 [1]: 8.71
pIC50 [2]: 7.23
solubility at 20 h [3]: 29 µg/mL (≈ 65.3 µM)
clearance [4]: 7 mL/min/kg
AUC [5]: 1540 ng·h/mL
bioavailability [6]: 13%

Cc1ccc(-c2cccc(CO)c2)nc1C(=O)Nc1c(C)cc(C(=O)O)cc1C
pIC50 [1]: 9.17
pIC50 [2]: 7.25
solubility at 20 h [3]: 14 µg/mL (≈ 35.9 µM)
clearance [4]: 7 mL/min/kg
AUC [5]: 4330 ng·h/mL
bioavailability [6]: 36%

Cc1ccc(-c2cccc(CO)c2)cc1C(=O)Nc1c(C)cc(C(=O)O)cc1C
pIC50 [1]: 9.55
pIC50 [2]: 7.73
solubility at 20 h [3]: 31 µg/mL (≈ 79.6 µM)
clearance [4]: 71 mL/min/kg
AUC [5]: 88 ng·h/mL
bioavailability [6]: 13%

Cc1ccc(-c2cccc(CO)c2)cc1C(=O)Nc1c(C)ccc(C(=O)O)c1C
pIC50 [2]: 7.23
solubility at 20 h [3]: 783 µg/mL (≈ 2010 µM)
clearance [4]: 15 mL/min/kg
AUC [5]: 375 ng·h/mL
bioavailability [6]: 7%

Cc1ccc(-c2cccc(CO)c2)nc1C(=O)Nc1c(C)ccc(C(=O)O)c1C
inhibition (Rattus norvegicus [7]): Active
inhibition at 10 µM [8]: -46%
Vd [9]: 0.16 L/kg
Vd [10]: 0.97 L/kg
pIC50 (Cytochrome P450 2C8): < 5.00
pIC50 (Cytochrome P450 2D6): < 5.00
pIC50 (Cytochrome P450 3A4): < 5.00
pIC50 (Cytochrome P450 2C19): < 5.00
pIC50 (Cytochrome P450 2C9): < 5.00
pIC50 [2]: 7.41
inhibition (INH) [11]: Not Active
solubility at 20 h [3]: 242 µg/mL (≈ 620 µM)
clearance [4]: 2.2 mL/min/kg
AUC [5]: 8520 ng·h/mL
bioavailability [6]: 22%
AUC [12]: 10900 ng·h/mL
Cmax [13]: 1640 ng/mL
Cmax [14]: 3820 ng/mL
half-life [15]: 126 min
half-life [16]: 66 min
clearance [17]: 3.7 mL/min/kg
bioavailability [18]: 48%
pIC50 [19]: < 4.60
pKi [19]: < 4.76
pIC50 [20]: < 4.60
pKi [20]: < 4.72
pIC50 [21]: < 4.60
pKi [21]: < 4.85
pIC50 (Cytochrome P450 1A2): < 5.00
pIC50 (Cytochrome P450 2B6): < 5.00
inhibition (Rattus norvegicus [22]): Dose-dependent effect
inhibition (Rattus norvegicus [23]): Active
inhibition [24]: -7%
inhibition [25]: -3%
inhibition [26]: -5%
inhibition [27]: 1%
inhibition [28]: 9%
inhibition [29]: 0%
inhibition [30]: -3%
inhibition [31]: 5%
inhibition [32]: 11%
inhibition [33]: -6%
inhibition at 10 µM [34]: -7%
inhibition at 10 µM [35]: -10%
inhibition (Rattus norvegicus [36]): -6%
inhibition [37]: -1%
inhibition [38]: -2%

Cc1ccc(C(=O)O)c(C)c1NC(=O)c1cc(-c2cccc(CO)c2)ccc1F
pIC50 [1]: 8.35
pIC50 [2]: 7.14
solubility at 20 h [3]: 709 µg/mL (≈ 1800 µM)
AUC (Rattus norvegicus [39]): 994 ng·h/mL
F (Rattus norvegicus [40]): 11%

Cc1cc(C(=O)O)cc(C)c1NC(=O)c1cc(-c2cccc(CO)c2)ccc1F
pIC50 [1]: 9.14
pIC50 [2]: 7.32
solubility at 20 h [3]: 774 µg/mL (≈ 1970 µM)
clearance [4]: 91 mL/min/kg
AUC [5]: 105 ng·h/mL
bioavailability [6]: 12%

Cc1ccc(C(=O)O)c(C)c1NC(=O)c1cc(-c2cccc(CO)c2)cc2ccccc12
bioavailability [41]: 6%

Cc1ccc(-c2cccc(Cl)c2)nc1C(=O)Nc1c(C)ccc(C(=O)O)c1C
pIC50 [1]: 8.81
pIC50 [2]: 6.20

Cc1ccc(C(=O)O)c(C)c1NC(=O)c1cc(-c2cccc(Cl)c2)cc2ccccc12
bioavailability [41]: 100%

Cc1cc(C(=O)O)cc(C)c1NC(=O)c1nc(-c2cccc(CO)c2)ccc1C(F)(F)F
pIC50 [1]: 9.17
pIC50 [2]: 6.92
solubility at 20 h [3]: 23 µg/mL (≈ 51.8 µM)
clearance [4]: 54 mL/min/kg
AUC [5]: 243 ng·h/mL
bioavailability [6]: 16%

O=C(O)Cc1ccccc1Nc1c(Cl)cccc1Cl
inhibition (Rattus norvegicus [42]): Active
inhibition (Rattus norvegicus [7]): Active
